Data on 18 compounds can be found in PubChem BioAssay (NCI).

Test in all cases: NCI-60 cell line screen, 48 h
Assay [1] deals with CAKI-1 renal.
The test system of assay [2] is 786-0 renal.
Assay [3] has as its system SK-MEL-28 melanoma.
For assay [4], the system named is BT-549 breast.
Assay [5] deals with DU-145 prostate.
The test system of assay [6] is HS 578T breast.
In assay [7] the test system is K-562 leukemia.
Assay [8] concerns SK-MEL-2 melanoma.
The test system of assay [9] is NCI-H226 lung.
The subject of assay [10] is RXF 393 renal.
The test system of assay [11] is SK-MEL-5 melanoma.
The test system of assay [12] is HCT-15 colon.
Assay [13] has as its system UACC-257 melanoma.
In assay [14] the test system is HT29 colon.
The subject of assay [15] is HOP-62 NSCLC.
In assay [16] the test system is UO-31 renal.

Where “and” joins values, the source holds several entries; their conditions need not be identical. Equal values may be shown once.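 Values below derive from 48-hour exposures of cells grown in 96-well plates, with endpoints linearly interpolated between the two concentrations bracketing the appropriate inhibition level. The concentration for 50% growth inhibition is given as GI50. The concentration for full growth arrest is given as TGI.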

Consider `COCn1c2ccc(OC(C)=O)cc2c2c(=O)oc(N(C)C)nc21`, for which the TGI in [1], in [2], in [3], in [4], in assay [5] and in assay [6] was over 100 µM each time. Moreover, the TGI in [7], in assay [8], in assay [9], in assay [10], in assay [11] and in [12] was over 100 µM throughout. The TGI in assay [13], in assay [14] and in assay [15] was over 100 µM each time.

With `COc1c2c(cc3oc(C)cc(=O)c13)OC(=N)C(C(N)=O)C2CC(=O)c1ccc(N)cc1` (centres undefined), the TGI in [1], in assay [2], in assay [3], in assay [4], in assay [5] and in assay [6] was over 100 µM throughout. Further, the TGI in [7], in assay [8], in assay [9], in assay [10], in assay [11] and in [12] was over 100 µM each time. For the same compound, the TGI in [13] and in assay [16] was over 100 µM in each case.

For the compound `Fc1ccc2nc3n(c2c1)C(c1c(F)cccc1F)SC3` (centres undefined), the TGI in assay [1], in assay [2], in assay [3], in assay [4], in [5] and in assay [6] was over 100 µM throughout. Besides, the TGI in assay [8], in [9], in [10], in assay [11], in assay [12] and in assay [13] was over 100 µM each time. In addition, the TGI in assay [16], in assay [14] and in assay [15] was over 100 µM in each case.

Regarding `COc1cccc(/C=C2/Sc3scc(-c4ccccc4)[n+]3C2=O)c1O`, the TGI in assay [1] was 47.7 µM; in [2], 32.1 µM; in [3], 40.9 µM; in assay [4], 45.1 µM; in assay [5] it was 56.9 µM; in [6], over 100 µM. For the same compound, the TGI in [8] came out at 89.8 µM; in assay [9], 40.5 µM; in [10], 29.8 µM; in [11], 31.1 µM; in assay [12] it was 29.9 µM; in [13], 44.9 µM. The TGI in assay [16] turned out to be 26.9 µM; in [14] it was 37.3 µM; in assay [15], 68.4 µM.

Regarding `CC1(C)CC(=O)c2c(nc3ccc4ccccc4c3c2-c2ccc(NC(=O)CCCC(=O)Nc3ccc(-c4c5c(nc6ccc7ccccc7c46)CC(C)(C)CC5=O)cc3)cc2)C1`, the TGI in assay [1], in assay [2], in assay [3], in assay [4], in assay [5] and in [6] was over 100 µM throughout. Further, the TGI in assay [7], in assay [8], in [9], in assay [11], in assay [12] and in assay [13] was over 100 µM each time. For the same compound, the TGI in assay [16], in [14] and in assay [15] was over 100 µM throughout.

In the case of `COc1ccc(N2C(=O)C3c4[nH]c5ccc(C)cc5c4C4CCC(C)CC4C3C2=O)cc1` (centres undefined), the TGI was over 100 µM in [1]; over 100 µM in assay [2]; over 100 µM in assay [4]; over 100 µM in assay [5]; 37.2 µM in assay [6]; over 100 µM in assay [7]. Besides, the TGI in assay [8] is over 100 µM; in assay [9], over 100 µM; in assay [10], 58.6 µM; in assay [11], over 100 µM; in assay [12], over 100 µM; in assay [13] it was over 100 µM. The TGI in [16] and in assay [14] was over 100 µM throughout.

On to `CCCC(=O)NC1=C(NCC)C(=O)c2ccccc2C1=O`, for which the TGI in assay [2], in assay [3], in assay [4], in assay [5], in assay [6] and in assay [7] was over 100 µM in each case. The TGI in assay [9], in assay [10], in [11], in assay [12], in [13] and in [14] was over 100 µM in each case. Also, the TGI in [15] was over 100 µM.

On to `CN(C)c1ccc(N=Nc2ccc3nc[nH]c3c2)cc1`, for which the TGI was over 100 µM in assay [1]; 36.1 µM in assay [2]; 25.6 µM in assay [3]; over 100 µM in assay [4]; 77.3 µM in assay [5]; 74.2 µM in [6]. Also, the TGI is 75.2 µM in assay [7]; over 100 µM in assay [8]; 82.1 µM in assay [9]; 88.7 µM in assay [10]; over 100 µM in assay [11]; 70.4 µM in assay [12]. The TGI in [13] turned out to be 59.5 µM; in [16], 65.9 µM; in [14] it was 37 µM.

On to `CC1(CCC2C=CCC2)CCCNC1=S` (centres undefined), for which the TGI in [2], in [3], in assay [4], in [5], in assay [6] and in assay [7] was over 10 µM throughout. For the same compound, the TGI in assay [8], in assay [9], in assay [10], in assay [11], in [12] and in assay [13] was over 10 µM each time. In addition, the TGI in assay [16], in assay [14] and in assay [15] was over 10 µM throughout.

`CCC1(CC)CC(=NNS(=O)(=O)c2ccc(C)cc2)C1`: the TGI in assay [1], in [2], in [3], in [4], in assay [5] and in assay [6] was over 100 µM in each case. The TGI in [7], in assay [8], in assay [9], in assay [10], in assay [11] and in assay [12] was over 100 µM throughout. Also, the TGI in [13], in assay [16] and in assay [14] was over 100 µM throughout.

Consider `C#CCOCC12C=CC(O1)C1C(=O)N(C)C(=O)C12` (centres undefined), for which the GI50 is over 100 µM in [1]; > 100 µM and 20 µM in assay [6]; 46.4 µM and > 100 µM in assay [7]. In addition, the TGI in [1], in assay [2], in [3], in assay [4], in assay [5] and in assay [6] was over 100 µM in each case. The TGI in assay [7] was over 100 µM; in assay [9] it was over 100 µM; in [10] it was over 100 µM; in assay [11], over 100 µM; in assay [12], over 100 µM; in [13], 21 µM and > 100 µM. The TGI in assay [16], in assay [14] and in [15] was over 100 µM in each case.

On to `O=C(NNC1=NCCN1)c1ccco1`, for which the TGI in assay [2], in [3], in [4], in assay [5], in assay [6] and in assay [7] was over 100 µM throughout. In addition, the TGI in assay [8], in assay [9], in assay [10], in [11], in assay [12] and in assay [13] was over 100 µM throughout. Besides, the TGI in [16], in assay [14] and in [15] was over 100 µM each time.

For the compound `COC(=O)C1C(OC(=O)c2ccccc2)CC2CCC1N2C(N)=O` (centres undefined), the TGI in [1], in assay [2], in [3], in assay [4], in assay [5] and in [6] was over 100 µM throughout. Further, the TGI in assay [7], in [8], in assay [9], in assay [11], in assay [12] and in assay [13] was over 100 µM each time. The TGI in [16], in [14] and in assay [15] was over 100 µM throughout.

As to `COc1ccccc1NC(=O)/C(Cc1nc2ccc([N+](=O)[O-])cc2[nH]c1=O)=N\NC(=O)C[N+](C)(C)C`, the TGI in [1], in assay [2], in [3], in assay [4], in [5] and in assay [6] was over 100 µM each time. The TGI in assay [8], in assay [9], in assay [10], in assay [11], in assay [12] and in assay [13] was over 100 µM each time. Moreover, the TGI in [16], in assay [14] and in [15] was over 100 µM each time.

On to `O=c1oc2ccccc2cc1/C=N/N1C(=S)N(c2ccccc2)C(=Nc2ccccc2)C1=Nc1ccccc1`, for which the TGI in [1], in [2], in [3], in [4], in assay [5] and in assay [6] was over 100 µM each time. The TGI in assay [7], in assay [8], in assay [9], in assay [10], in [11] and in assay [12] was over 100 µM each time. For the same compound, the TGI in [13], in assay [16] and in [15] was over 100 µM throughout.

In the case of `O=C(NCCCCCCCCNC(=O)c1cc(-c2ccccc2)nc2ccccc12)c1cc(-c2ccccc2)nc2ccccc12`, the TGI in assay [1], in assay [2], in [3], in [4], in assay [5] and in assay [6] was over 100 µM throughout. Further, the TGI in assay [7] is over 100 µM; in assay [9] it was over 100 µM; in [10], 84.4 µM; in assay [11], over 100 µM; in assay [12], over 100 µM; in assay [13], over 100 µM. For the same compound, the TGI in assay [16], in assay [14] and in [15] was over 100 µM each time.

With `CC(=O)OCC(OC(C)=O)C(OC(C)=O)C(C=NN(C(C)=O)S(=O)(=O)c1ccc(/C=C2\NC(=O)NC2=O)cc1)OC(C)=O` (centres undefined), the TGI in assay [1], in assay [2], in assay [4], in [5], in [6] and in [7] was over 100 µM throughout. Also, the TGI in assay [8], in assay [9], in [10], in assay [11], in assay [12] and in assay [13] was over 100 µM each time. Also, the TGI in assay [16], in assay [14] and in assay [15] was over 100 µM throughout.

Consider `O=c1cc(-c2cccc(Cl)c2)[nH]c2ncccc12`, for which the TGI was 40.4 µM in assay [1]; 14.5 µM in assay [2]; over 100 µM in assay [3]; over 100 µM in assay [4]; over 100 µM in assay [5]; 13 µM in assay [6]. In addition, the TGI is over 86.5 µM in assay [8]; over 100 µM in assay [9]; 40.1 µM in [10]; 1.92 µM in assay [11]; over 100 µM in assay [12]; over 100 µM in assay [13]. For the same compound, the TGI was over 54 µM in assay [16], over 100 µM in assay [14] and 33.4 µM in [15].
